From PMC6656724 (Communications Biology, 2019)
Read-outs that look alike come from different tables or passages of the source. One block for each compound: values may come before it.

What was measured:
[1] = molecular target: T1, Pseudomonas fluorescens KMO (PfKMO) (Pseudomonas fluorescens, UniProt Q84HF5, C252S/C461S); assay: biochemical
T1 construct: made in house; host or cells: E. coli BL21 (DE3)
Text: (§1) A combination of ligand- and structural-based virtual screening approaches (see supporting information for details) was used to identify an initial library of >1000 compounds that may be suitable as potential KMO inhibitors. These compounds were screened for inhibition of Pseudomonas fluorescens KMO (PfKMO) and Homo sapiens KMO (HsKMO) using high-throughput assays by monitoring the time-dependent oxidation of NADPH at 340 nm[23].
(§2) Small-molecule compounds were supplied by Biofocus (Charles River Laboratories International Inc., MA, USA), which were identified in silico as potential inhibitors (further details are described in the Supplementary Methods). Initial inhibition assays were performed against Pseudomonas fluorescens KMO (PfKMO) and Homo sapiens KMO (HsKMO) by monitoring the time-dependent absorbance change of NADPH at 340 nm. Purified KMO protein (200 nM) was incubated in 100 µL reaction buffer (20 mM potassium phosphate pH 8.0, 7 mM 2-mercaptoethanol) containing 100 μM NADPH, 100 μM L-Kyn and 20 μM potential inhibitors in 96-well plates. […] The inhibitors identified in the initial screens were validated and re-assayed individually in a 1 cm path-length quartz micro cuvette. […] Suppliers for target inhibitor compounds are listed in Supplementary Table 11.
(§3) Supplementary Figure 1. Examples of inhibition data used to generate IC50 values for selected KMO inhibitors. Fixed concentration of L -KYN (200 µM) and NADPH (100µM) were added into reaction buffer (HsKMO: 20mM potassium phosphate pH 8.0, 7 mM 2-mercaptoethanol; PfKMO: 20 mM HEPES, 10mM sodium acetate, pH 7.5, 2mM DTT). The reaction was initiated by the addition of KMO enzyme (HsKMO: 0.5µM; PfKMO: 0.1 µM). KMO activity was measured in the presence of a range of inhibitor concentrations. […]
(§4) 3.5 Steady-state enzymatic assays.
(§5) Initial screening assays and determination of IC50 values for each potential inhibitor compound were carried out using either 0.1 µM PfKMO or 0.5 µM HsKMO at fixed […]
(§6) (HsKMO: 20 mM potassium phosphate pH 8.0, 7 mM 2-mercaptoethanol; PfKMO:
(§7) 20 mM HEPES, 10 mM sodium acetate, pH 7.5, 2 mM DTT). KMO activity was measured in the presence of a range of inhibitor concentrations by monitoring the […]
consumption of NADPH at 340 nm upon addition of enzyme via a Cary 50 UV-Vis spectrophotometer (Agilent Technologies). Rates were determined from linear regression fits to the initial linear portion of the curves. All measurements were performed in triplicate. The IC50 values for inhibitors were obtained by plotting the percentage inhibition versus the inhibitor concentration and fitting to the Morrison equation16 (equation 1) using Origin 9.0 Software (OriginLab, Northampton, MA). […]

[2] = molecular target: T2, Homo sapiens KMO (HsKMO) (Homo sapiens, UniProt O15229); assay: KMO inhibition assay, NADPH oxidation at 340 nm (HsKMO); assay type: biochemical
T2 construct: GST; made in house
Text: as §1, §2
Supplementary Figure 1. Examples of inhibition data used to generate IC50 values for selected KMO inhibitors.
as §3, with “NADPH” for “Supplementary Figure 1. Examples of inhibition data used to generate IC50 values for selected KMO inhibitors. Fixed concentration of L -KYN (200 µM) and NADPH”
as §4, §5, §6, §7
consumption of NADPH at 340 nm upon addition of enzyme via a Cary 50 UV-Vis spectrophotometer (Agilent Technologies). Rates were determined from linear regression fits to the initial linear portion of the curves. All measurements were performed in triplicate. The IC50 values for inhibitors were obtained by plotting the percentage inhibition versus the inhibitor concentration and fitting to the Morrison equation16 (equation 1) using Origin 9.0 Software (OriginLab, Northampton, MA).
E + I + K!"" − E + I + K!"" ! − 4[E][I] where v0 is the enzyme activity without inhibitor, vi is the enzyme activity with ligand

[3] = test system: MDR1 (P-glycoprotein); assay: in vitro; assay type: in vitro ADME, canine; conditions: dog
Procedure: (§8) internal standard at each timepoint. […]
(§9) including an analytical internal standard.
(§10) Apparent permeability (Papp) values were determined from the relationship: […]
(§11) Where V is the volume of each Transwell compartment (apical 125 µL, basolateral 600 µL), and concentrations are the relative MS responses for compound (normalized to internal standard) in the donor chamber before incubation and acceptor chamber at the end of the incubation. Area = area of cells exposed for drug transfer (0.33 cm 2).
(§12) Efflux ratios (Papp B>A / Papp A>B) were calculated for each compound from the […]
(§13) MDR1-MDCK cell line has been engineered to overexpress the efflux transporter, MDR1 (P-glycoprotein), and a finding of good permeability B>A, but poor […]
(§14) order to confirm the involvement of MDR1 in any efflux seen, an “ef fective efflux ratio” (EER) was calculated by comparing compound efflux ratios (ER) in the two cell types, i.e. EER = ER (MDR1-MDCK)/ ER (wild-type MDCK). This ratio illustrates the effect of the over-expressed MDR1 normalised for the background movement of compound through the wild-type cells.
(§15) Lucifer Yellow (LY) was added to the apical buffer in all wells to assess viability of the cell layer. As LY cannot freely permeate lipophilic barriers, a high degree of LY […]
(§16) validity of other wells on the plate.
(§17) Compound recovery from the wells was determined from MS responses (normalized to internal standard) in donor and acceptor chambers at the end of incubation compared to response in the donor chamber pre-incubation.

[4] = in vitro; assay type: in vitro ADME, canine; conditions: dog; for Papp A→B at 1 h, 10 µM / Papp B→A at 1 h, 10 µM / recovery at 1 h, 10 µM: MDCK
Procedure: as §8, §9, §10, §11, §12, §13, §14, §15, §16, §17

[5] = MDCK-MDR1, pH 7.4, MDR1 MDCK, read-out: Papp A>B Mean
[6] = MDCK-MDR1, pH 7.4, MDR1 MDCK, read-out: Papp B>A Mean
[7] = MDCK-MDR1, pH 7.4, MDR1 MDCK, read-out: Recovery A>B Mean
[8] = MDCK-MDR1, pH 7.4, MDR1 MDCK, read-out: Recovery A>B n=1
[9] = MDCK-MDR1, pH 7.4, MDR1 MDCK, read-out: Recovery A>B n=2
[10] = MDCK-MDR1, pH 7.4, MDR1 MDCK, read-out: Recovery B>A Mean
[11] = MDCK-MDR1, pH 7.4, MDR1 MDCK, read-out: Recovery B>A n=1
[12] = MDCK-MDR1, pH 7.4, MDR1 MDCK, read-out: Recovery B>A n=2
[13] = MDCK-MDR1, pH 7.4, Papp A>B n=1, MDR1 MDCK
[14] = MDCK-MDR1, pH 7.4, Papp A>B n=2, MDR1 MDCK
[15] = MDCK-MDR1, pH 7.4, Papp B>A n=1, MDR1 MDCK
[16] = MDCK-MDR1, pH 7.4, Papp B>A n=2, MDR1 MDCK
[17] = pH 7.4, Papp A>B n=1, wild type MDCK
[18] = pH 7.4, Papp A>B n=2, wild type MDCK
[19] = pH 7.4, Papp B>A n=1, wild type MDCK
[20] = pH 7.4, Papp B>A n=2, wild type MDCK
[21] = pH 7.4, wild type MDCK, read-out: Papp A>B Mean
[22] = pH 7.4, wild type MDCK, read-out: Papp B>A Mean
[23] = pH 7.4, wild type MDCK, read-out: Recovery A>B Mean
[24] = pH 7.4, wild type MDCK, read-out: Recovery A>B n=1
[25] = pH 7.4, wild type MDCK, read-out: Recovery A>B n=2
[26] = pH 7.4, wild type MDCK, read-out: Recovery B>A Mean
[27] = pH 7.4, wild type MDCK, read-out: Recovery B>A n=1
[28] = pH 7.4, wild type MDCK, read-out: Recovery B>A n=2

T2 sequence (O15229 whole entry): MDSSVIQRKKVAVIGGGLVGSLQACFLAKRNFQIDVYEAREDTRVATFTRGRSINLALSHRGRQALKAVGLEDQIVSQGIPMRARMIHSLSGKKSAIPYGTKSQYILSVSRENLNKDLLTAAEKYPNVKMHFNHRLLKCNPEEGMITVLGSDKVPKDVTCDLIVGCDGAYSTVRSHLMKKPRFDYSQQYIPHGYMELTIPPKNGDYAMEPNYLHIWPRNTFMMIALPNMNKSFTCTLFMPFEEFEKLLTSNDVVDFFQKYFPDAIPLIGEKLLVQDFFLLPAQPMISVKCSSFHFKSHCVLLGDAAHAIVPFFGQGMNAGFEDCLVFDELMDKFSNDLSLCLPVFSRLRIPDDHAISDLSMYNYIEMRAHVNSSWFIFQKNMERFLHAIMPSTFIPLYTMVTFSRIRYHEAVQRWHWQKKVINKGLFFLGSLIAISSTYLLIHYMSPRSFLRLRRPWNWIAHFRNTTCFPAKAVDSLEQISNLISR
T1 sequence (Q84HF5 whole entry C252S/C461S): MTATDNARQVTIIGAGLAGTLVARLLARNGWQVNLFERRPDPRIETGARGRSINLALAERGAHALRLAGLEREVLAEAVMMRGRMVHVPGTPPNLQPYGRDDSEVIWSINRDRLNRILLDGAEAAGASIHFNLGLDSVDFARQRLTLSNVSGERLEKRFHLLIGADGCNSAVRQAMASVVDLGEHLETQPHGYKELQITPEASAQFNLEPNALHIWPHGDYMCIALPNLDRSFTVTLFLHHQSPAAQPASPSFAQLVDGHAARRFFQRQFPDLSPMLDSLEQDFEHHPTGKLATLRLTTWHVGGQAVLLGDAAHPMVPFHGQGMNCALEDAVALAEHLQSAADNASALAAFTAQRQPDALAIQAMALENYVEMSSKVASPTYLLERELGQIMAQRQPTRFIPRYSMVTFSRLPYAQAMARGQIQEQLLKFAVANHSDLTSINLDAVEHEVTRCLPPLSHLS

Structure (SMILES): O=C(O)c1ccc(-c2ccc(Br)c(Cl)c2)o1 [compound 19, 5-(4-bromo-3-chlorophenyl) furan-2-carboxylic acid]
IC50 [1]: 0.7 ± 0.01 µM
IC50 [2]: 54.2 µM

Structure (SMILES): Cc1ccc2c(c1)cc(C(=O)N[C@@H](C(=O)O)c1ccccc1)n2C [compound 7, (R)-2-(1,5-dimethyl-1H-indole-2-carboxamido)-2-phenylacetic acid]
IC50 [1]: 101 ± 9.1 µM
IC50 [2]: 21.3 µM

Structure (SMILES): O=C(O)[C@@H]1C[C@H]1C(=O)c1ccc(Cl)c(Cl)c1 [UPF648, reference compound]
IC50 [1]: 0.12 ± 0.03 µM
IC50 [2]: 0.06 µM

Papp A→B at 1 h, 10 µM [3, 5]: 52.5 ×10⁻⁶ cm/s
Papp B→A at 1 h, 10 µM [3, 6]: 38 ×10⁻⁶ cm/s
recovery at 1 h, 10 µM [3, 7]: 92.5%
recovery at 1 h, 10 µM [3, 8]: 97%
recovery at 1 h, 10 µM [3, 9]: 88%
recovery at 1 h, 10 µM [3, 10]: 80.5%
recovery at 1 h, 10 µM [3, 11]: 83%
recovery at 1 h, 10 µM [3, 12]: 78%
Papp A→B at 1 h, 10 µM [3, 13]: 53 ×10⁻⁶ cm/s
Papp A→B at 1 h, 10 µM [3, 14]: 52 ×10⁻⁶ cm/s
Papp B→A at 1 h, 10 µM [3, 15]: 39 ×10⁻⁶ cm/s
Papp B→A at 1 h, 10 µM [3, 16]: 37 ×10⁻⁶ cm/s
efflux ratio at 1 h, 10 µM ([3]; pH 7.4, MDR1 MDCK, Papp B>A / Papp A>B): 0.72
Papp A→B at 1 h, 10 µM [4, 17]: 52 ×10⁻⁶ cm/s
Papp A→B at 1 h, 10 µM [4, 18]: 57 ×10⁻⁶ cm/s
Papp B→A at 1 h, 10 µM [4, 19]: 30 ×10⁻⁶ cm/s
Papp B→A at 1 h, 10 µM [4, 20]: 31 ×10⁻⁶ cm/s
Papp A→B at 1 h, 10 µM [4, 21]: 54.5 ×10⁻⁶ cm/s
Papp B→A at 1 h, 10 µM [4, 22]: 30.5 ×10⁻⁶ cm/s
recovery at 1 h, 10 µM [4, 23]: 91%
recovery at 1 h, 10 µM [4, 24]: 88%
recovery at 1 h, 10 µM [4, 25]: 94%
recovery at 1 h, 10 µM [4, 26]: 80.5%
recovery at 1 h, 10 µM [4, 27]: 77%
recovery at 1 h, 10 µM [4, 28]: 84%
efflux ratio at 1 h, 10 µM ([4]; pH 7.4, wild type MDCK, Papp B>A / Papp A>B): 0.56
Structure (SMILES): CC(C)NCC(O)COc1cccc2ccccc12 (stereo not drawn) [Propranolol, reference compound]

Papp A→B at 1 h, 10 µM [3, 5]: < 1 ×10⁻⁶ cm/s
Papp B→A at 1 h, 10 µM [3, 6]: 22 ×10⁻⁶ cm/s
recovery at 1 h, 10 µM [3, 7]: 55%
recovery at 1 h, 10 µM [3, 8]: 55%
recovery at 1 h, 10 µM [3, 9]: 55%
recovery at 1 h, 10 µM [3, 10]: 67.5%
recovery at 1 h, 10 µM [3, 11]: 71%
recovery at 1 h, 10 µM [3, 12]: 64%
Papp A→B at 1 h, 10 µM [3, 13]: < 1 ×10⁻⁶ cm/s
Papp A→B at 1 h, 10 µM [3, 14]: < 1 ×10⁻⁶ cm/s
Papp B→A at 1 h, 10 µM [3, 15]: 24 ×10⁻⁶ cm/s
Papp B→A at 1 h, 10 µM [3, 16]: 20 ×10⁻⁶ cm/s
Papp A→B at 1 h, 10 µM [4, 17]: < 1 ×10⁻⁶ cm/s
Papp A→B at 1 h, 10 µM [4, 18]: < 1 ×10⁻⁶ cm/s
Papp B→A at 1 h, 10 µM [4, 19]: 3.6 ×10⁻⁶ cm/s
Papp B→A at 1 h, 10 µM [4, 20]: 3.9 ×10⁻⁶ cm/s
Papp A→B at 1 h, 10 µM [4, 21]: < 1 ×10⁻⁶ cm/s
Papp B→A at 1 h, 10 µM [4, 22]: 3.75 ×10⁻⁶ cm/s
recovery at 1 h, 10 µM [4, 23]: 46.5%
recovery at 1 h, 10 µM [4, 24]: 48%
recovery at 1 h, 10 µM [4, 25]: 45%
recovery at 1 h, 10 µM [4, 26]: 72.5%
recovery at 1 h, 10 µM [4, 27]: 71%
recovery at 1 h, 10 µM [4, 28]: 74%
Structure (SMILES): CC[C@]1(O)C[C@@H]2CN(CCc3c([nH]c4ccccc34)[C@@](C(=O)OC)(c3cc4c(cc3OC)N(C)[C@H]3[C@@](O)(C(=O)OC)[C@H](OC(C)=O)[C@]5(CC)C=CCN6CC[C@]43[C@@H]65)C2)C1 [Vinblastine, reference compound]

IC50 [2]: 38.8 µM
Structure (SMILES): CC(C)n1c(CCC(=O)O)ccc1-c1ccc(Cl)cc1 [compound 14, 3-[5-(4-chlorophenyl)-1-(methylethyl)pyrrol-2-yl]propanoic acid]

Structure (SMILES): O=C(O)c1ccc(-c2ccc(F)c(Cl)c2)o1 [compound 18, 5-(3-chloro-4-fluorophenyl) furan-2-carboxylic acid]
IC50 [1]: 2.4 ± 0.3 µM
IC50 [2]: 193 µM

Structure (SMILES): O=C(O)CCc1ccc(-c2cccs2)n1-c1ccc(Br)cc1 [compound 2, 3-[1-(4-bromophenyl)-5-(2-thienyl)-1H-pyrrol-2-yl] propanoic acid]
IC50 [1]: 130 ± 18.7 µM
IC50 [2]: 1.5 µM

Structure (SMILES): O=C(O)c1ccc(-c2ccccc2C(F)(F)F)o1 [compound 11, 5-[2-(trifluoromethyl)phenyl]furan-2-carboxylic acid]
IC50 [1]: 72.1 ± 1.9 µM
IC50 [2]: 144 µM
